From ChEMBL document CHEMBL1157374, “Lack of an effect of antibiotic treatment on prolonged detection of chlamydial DNA in murine genital tract infection” (2007)
The source made the active and inactive calls. The calls are words filed in the database; no cut-off is given here.

Key:
[1] = tested on: Chlamydia trachomatis; experiment: Antimicrobial activity against Chlamydia trachomatis Nigg infected in BALB/c mouse genital tract infection model assessed as recovery of inclusion forming units from cervicovaginal swabs at 3 mg/ml, ip administered on days 10 to 24 days postinfection; assay type: functional, organism-based
[2] = tested on: Chlamydia trachomatis; experiment: Antimicrobial activity against Chlamydia trachomatis Nigg infected in BALB/c mouse genital tract infection model assessed as recovery of inclusion forming units from cervicovaginal swabs at 3 mg/ml, ip administered on days 42 to 56 days postinfection; assay type: functional, organism-based
[3] = tested on: Chlamydia trachomatis; experiment: Antimicrobial activity against Chlamydia trachomatis Nigg infected in BALB/c mouse genital tract infection model assessed as severe oviduct dilation at 3 mg/ml, ip administered on days 10 to 24 days postinfection; assay type: functional
[4] = tested on: Chlamydia trachomatis; experiment: Antimicrobial activity against Chlamydia trachomatis Nigg infected in BALB/c mouse genital tract infection model assessed as severe oviduct dilation at 3 mg/ml, ip administered on days 42 to 56 days postinfection; assay type: functional
[5] = tested on: Chlamydia trachomatis; experiment: Effect on chlamydial plasmid DNA of Chlamydia trachomatis Nigg infected in BALB/c mouse genital tract infection model at 3 mg/ml, ip administered on days 10 to 24 days postinfection by nested PCR; assay type: functional, organism-based
[6] = tested on: Chlamydia trachomatis; experiment: Effect on chlamydial plasmid DNA of Chlamydia trachomatis Nigg infected in BALB/c mouse genital tract infection model at 3 mg/ml, ip administered on days 42 to 56 days postinfection by nested PCR; assay type: functional, organism-based

C[C@H]1c2cccc(O)c2C(=O)C2=C(O)[C@]3(O)C(=O)C(C(N)=O)=C(O)[C@@H](N(C)C)[C@@H]3[C@@H](O)[C@@H]21.O [DOXYCYCLINE]
Activity [1]: Active | Activity [2]: Active | Activity [3]: 30% | Activity [4]: 80% | Activity [5]: inactive | Activity [6]: inactive
